For the experiment, the target named is T1, Bcl-2 protein (Recombinant Human Bcl-2 Protein) (Homo sapiens, UniProt P10415).
T1 construct: purchased Novus NBP2-34889
Put plainly: Binding evaluation of mixture library compounds to Bcl-2 using AS-MS (affinity selection mass spectrometry). The note with it: for ASMS ratio (%) n = 1: replicate n = 1; for ASMS ratio (%) n = 1 / ASMS ratio (%) n = 2: ASMS Ratio(%)=(A−C)/B×100; for ASMS ratio (%) n = 2: replicate n = 2. Put shortly:
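ASMS Ratio (%) was calculated as (A−C)/B×100, where A is the protein sample after SEC, B the protein-free sample without SEC and C the protein-free sample after SEC. Each compound was at […] in a 1200-member pool with 20 μM Bcl-2, incubated 1 h at 23° C.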

Where [1] appears, read: AS-MS, mixture of 1200 compounds, Bcl-2.
Where [2] appears, read: AS-MS on the mixture of 1200 library compounds.

T1 sequence (P10415 whole entry): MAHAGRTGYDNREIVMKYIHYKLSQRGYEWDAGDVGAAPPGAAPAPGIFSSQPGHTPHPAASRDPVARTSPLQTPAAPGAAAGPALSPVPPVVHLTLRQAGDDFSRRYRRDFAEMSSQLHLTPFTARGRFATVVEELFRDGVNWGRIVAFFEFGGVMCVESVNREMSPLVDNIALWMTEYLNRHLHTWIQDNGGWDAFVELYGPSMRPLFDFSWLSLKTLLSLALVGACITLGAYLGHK

With `CCOc1cccc(-c2ccc(C(=O)N3CCN(c4ccc(C(=O)NS(=O)(=O)c5ccc(NCCSc6ccccc6)c([N+](=O)[O-])c5)cc4)CC3)cc2C)c1` [B2Q025-01, 4-[4-[4-(3-Ethoxyphenyl)-3-methylbenzoyl]piperazin-1-yl]-N-[3-nitro-4-(2-phenylsulfanylethylamino)phenyl]sulfonylbenzamide], under “AS-MS, mixture library, Bcl-2”, the “ASMS ratio (%) n = 1” value is −5.7% and the “ASMS ratio (%) n = 2” value is reported as 0.0%.

With `CCOc1cccc(-c2ccc(CN3CCN(c4ccc(C(=O)NS(=O)(=O)CCC(F)(F)F)nn4)CC3)c3ccccc23)c1` [B2N091-01, 6-[4-[[4-(3-Ethoxyphenyl)naphthalen-1-yl]methyl]piperazin-1-yl]-N-(3,3,3-trifluoropropylsulfonyl)pyridazine-3-carboxamide], the “ASMS ratio (%)” value (n = 1) amounted to 0.0% and the “ASMS ratio (%)” value (n = 2) is listed as 0.0%.

Take `CCOc1cncc(-c2cc(CN3CCN(c4ccc(C(=O)N(CC)CC)nn4)CC3)cc(C(F)(F)F)c2)c1` [B4J088-01]: where the note is “AS-MS, mixture library, Bcl-2”, the “ASMS ratio (%) n = 1” value worked out at 0.0% and the “ASMS ratio (%) n = 2” value turned out to be 0.0%.

In the case of `CCOc1cncc(-c2cnn(-c3cc(C(=O)N4CCN(c5ccc(C(=O)NS(C)(=O)=O)nn5)CC4)cc(C(F)(F)F)c3)c2)c1` [B2I022-01, 6-[4-[3-[4-(5-Ethoxypyridin-3-yl)pyrazol-1-yl]-5-(trifluoromethyl)benzoyl]piperazin-1-yl]-N-methylsulfonylpyridazine-3-carboxamide], for the setting “AS-MS, mixture library, Bcl-2”, the “ASMS ratio (%) n = 1” value came to 0.0% and the “ASMS ratio (%) n = 2” value is on record as 0.0%.

In the case of “6-[4-[3-[2-(5-Ethoxypyridin-3-yl)ethynyl]-5-(trifluoromethyl)benzoyl]piperazin-1-yl]-N-propylpyridazine-3-carboxamide [B1M018-01]”, under setting [1], the “ASMS ratio (%) n = 1” value is on record as 0.0% and the “ASMS ratio (%) n = 2” value was 0.0%.

On to `CCOc1cncc(-c2csc(CN3CCN(c4ccc(C(=O)N(CC)CC)cc4)CC3)c2)c1` [B4J068-01, 4-[4-[[4-(5-Ethoxypyridin-3-yl)thiophen-2-yl]methyl]piperazin-1-yl]-N,N-diethylbenzamide], for which, for the setting “AS-MS, mixture library, Bcl-2”, the “ASMS ratio (%) n = 1” value is reported as 0.7% and the “ASMS ratio (%) n = 2” value came to 0.0%.

For `CCOc1cccc(-c2cc(CN3CCN(c4ccc(C(=O)NS(=O)(=O)c5ccc(NCCSc6ccccc6)c([N+](=O)[O-])c5)cc4)CC3)cc(OC(F)(F)F)c2)c1` [B2Q063-01, 4-[4-[[3-(3-Ethoxyphenyl)-5-(trifluoromethoxy)phenyl]methyl]piperazin-1-yl]-N-[3-nitro-4-(2-phenylsulfanylethylamino)phenyl]sulfonylbenzamide], for the setting “AS-MS, mixture library, Bcl-2”, the “ASMS ratio (%) n = 1” value is reported as 13.3% and the “ASMS ratio (%) n = 2” value is listed as −25.5%.

With `CCOc1cccc(-c2ccc(CN3CCN(c4ccc(C(=O)N(C)CC56CC7CC(CC(C7)C5)C6)nn4)CC3)c(CC)c2)c1` [B3A075-01, N-(1-Adamantylmethyl)-6-[4-[[4-(3-ethoxyphenyl)-2-ethylphenyl]methyl]piperazin-1-yl]-N-methylpyridazine-3-carboxamide], under setting [2], the “ASMS ratio (%) n = 1” value is −5.8% and the “ASMS ratio (%) n = 2” value is reported as −16.0%.

Regarding `CCOc1cccc(-c2cnn(-c3cc(C(=O)N4CCN(c5ccc(C(=O)N(C)CC67CC8CC(CC(C8)C6)C7)nn5)CC4)cc(C(F)(F)F)c3)c2)c1` [B3A021-01, N-(1-Adamantylmethyl)-6-[4-[3-[4-(3-ethoxyphenyl)pyrazol-1-yl]-5-(trifluoromethyl)benzoyl]piperazin-1-yl]-N-methylpyridazine-3-carboxamide], under setting [2], the “ASMS ratio (%) n = 1” value is 12.5% and the “ASMS ratio (%) n = 2” value was −8.4%.

Take `CCOc1cncc(-c2ccc(CN3CCN(c4ccc(C(=O)NCC56CC7CC(CC(C7)C5)C6)nn4)CC3)cc2C)c1` [B1A074-01, N-(1-Adamantylmethyl)-6-[4-[[4-(5-ethoxypyridin-3-yl)-3-methylphenyl]methyl]piperazin-1-yl]pyridazine-3-carboxamide]: under setting [1], the “ASMS ratio (%) n = 1” value is listed as 3.2% and the “ASMS ratio (%) n = 2” value is on record as −0.1%.

Regarding `CCOc1cncc(-c2ccc(C(=O)N3CCN(c4ccc(C(=O)NS(=O)(=O)c5ccc(NCCSc6ccccc6)c([N+](=O)[O-])c5)cc4)CC3)c3ccccc23)c1` [B2Q036-01, 4-[4-[4-(5-Ethoxypyridin-3-yl)naphthalene-1-carbonyl]piperazin-1-yl]-N-[3-nitro-4-(2-phenylsulfanylethylamino)phenyl]sulfonylbenzamide], where the note is “AS-MS, mixture library, Bcl-2”, the “ASMS ratio (%) n = 1” value came to 0.0% and the “ASMS ratio (%) n = 2” value is recorded as −6.0%.

`CCOc1cncc(-c2ccc(CN3CCN(c4ccc(C(=O)NCC56CC7CC(CC(C7)C5)C6)nn4)CC3)c(OC)c2)c1` [B1A080-01, N-(1-Adamantylmethyl)-6-[4-[[4-(5-ethoxypyridin-3-yl)-2-methoxyphenyl]methyl]piperazin-1-yl]pyridazine-3-carboxamide]: under setting [1], the “ASMS ratio (%) n = 1” value is 3.4% and the “ASMS ratio (%) n = 2” value is given as 0.0%.

For the compound “4-[4-[4-(3-Ethoxyphenyl)naphthalene-1-carbonyl]piperazin-1-yl]-N-propylbenzamide [B1M073-01]”, under setting [1], the “ASMS ratio (%) n = 1” value came to 0.4% and the “ASMS ratio (%) n = 2” value was −0.5%.

With `CCOc1cccc(C#Cc2cncc(C(=O)N3CCN(c4ccc(C(=O)N(CC)CC)nn4)CC3)c2)c1` [B4J009-01, 6-[4-[5-[2-(3-Ethoxyphenyl)ethynyl]pyridine-3-carbonyl]piperazin-1-yl]-N,N-diethylpyridazine-3-carboxamide], under setting [2], the “ASMS ratio (%) n = 1” value is 0.0% and the “ASMS ratio (%) n = 2” value worked out at 0.0%.

As for `CCOc1cccc(-c2cc(CN3CCN(c4ccc(C(=O)NS(=O)(=O)c5ccc(NCCSc6ccccc6)c([N+](=O)[O-])c5)nn4)CC3)cc(C(F)(F)F)c2)c1` [B2Q087-01, 6-[4-[[3-(3-Ethoxyphenyl)-5-(trifluoromethyl)phenyl]methyl]piperazin-1-yl]-N-[3-nitro-4-(2-phenylsulfanylethylamino)phenyl]sulfonylpyridazine-3-carboxamide], where the note is “AS-MS, mixture library, Bcl-2”, the “ASMS ratio (%) n = 1” value is 17.6% and the “ASMS ratio (%) n = 2” value is −2.1%.

With “6-[4-[[4-(3-Ethoxyphenyl)naphthalen-1-yl]methyl]piperazin-1-yl]-N-propylpyridazine-3-carboxamide [B1M045-01]”, under setting [1], the “ASMS ratio (%) n = 1” value is listed as 2.5% and the “ASMS ratio (%) n = 2” value is −2.3%.

As for `CCOc1cncc(-c2ccc(CN3CCN(c4ccc(C(=O)N(CC)CC)cc4)CC3)c3ccccc23)c1` [B4J066-01, 4-[4-[[4-(5-Ethoxypyridin-3-yl)naphthalen-1-yl]methyl]piperazin-1-yl]-N,N-diethylbenzamide], under “AS-MS, mixture library, Bcl-2”, the “ASMS ratio (%) n = 1” value is reported as 0.0% and the “ASMS ratio (%) n = 2” value is −1.5%.

Turning to `CCOc1cccc(C#Cc2cncc(C(=O)N3CCN(c4ccc(C(=O)NCC(F)(F)F)cc4)CC3)c2)c1` [B1K031-01, 4-[4-[5-[2-(3-Ethoxyphenyl)ethynyl]pyridine-3-carbonyl]piperazin-1-yl]-N-(2,2,2-trifluoroethyl)benzamide], under setting [1], the “ASMS ratio (%) n = 1” value was found to be 0.0% and the “ASMS ratio (%) n = 2” value is listed as 0.0%.

With `CCOc1cncc(-c2csc(CN3CCN(c4ccc(C(=O)NCC56CC7CC(CC(C7)C5)C6)cc4)CC3)c2)c1` [B1A068-01, N-(1-Adamantylmethyl)-4-[4-[[4-(5-ethoxypyridin-3-yl)thiophen-2-yl]methyl]piperazin-1-yl]benzamide], under setting [1], the “ASMS ratio (%) n = 1” value stood at 12.2% and the “ASMS ratio (%) n = 2” value is 3.3%.

The values above are taken from US20240132431A1, “METHOD FOR ALKYLATING ACIDIC FUNCTIONAL GROUP” (Chugai Seiyaku Kabushiki Kaisha, priority 2021, published 2024).
